Earlier results on 4 compounds are cited in patent publication US12357667B2, “Nutraceutical formulations to prevent, treat, and inhibit excess cytokines, SARS-CoV-2 spike proteins, and mRNA vaccine spike proteins” (priority 2021, dated 2025).

The test system of series [1] is variant spikes from the SARS-CoV-2 alpha and delta strains.
Series [2] deals with SARS-CoV-2 alpha variant B.1.1.7 and the beta variant B.1.351. The conditions noted are these: alpha variant B.1.1.7 and beta variant B.1.351.

Take `CC(=O)N[C@@H](CS)C(=O)O` [N-acetylcysteine, reference compound]: in series [1], the “activity of variant spikes” value is reported as “suppressed”.
`C=C(C)[C@@H]1CCC(C)=C[C@H]1c1c(O)cc(CCCCC)c(C(=O)O)c1O` [cannabidiolic acid]: the effectiveness against variants result in series [2] was “equally effective”.
Take `CCCCCc1cc(O)c(C/C=C(\C)CCC=C(C)C)c(O)c1C(=O)O` [cannabigerolic acid]: the effectiveness against variants entry in series [2] is “equally effective”.
For the compound `N[C@@H](CCC(=O)N[C@@H](CS)C(=O)NCC(=O)O)C(=O)O` [glutathione, γ-glutamyl cysteinyl glycine], in series [1], the “activity of variant spikes” value is “suppressed”.
